According to PubChem BioAssay (NCI):
“And” between values parts separate entries of the source, which are not always exact repeats. Equal values may be shown once.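 Test compounds were applied to cells in 96-well plates for 48 hours at 5 doses. GI50: concentration for 50% inhibition of growth. TGI denotes the concentration required for complete inhibition of growth.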

Assays:
Assay in all cases: DTP human tumour cell line panel, 48 h
MCF7 breast = test system: MCF7 breast
T-47D breast = test system: T-47D breast
EKVX NSCLC = test system: EKVX NSCLC
CAKI-1 renal = test system: CAKI-1 renal
SK-MEL-2 melanoma = test system: SK-MEL-2 melanoma
HCT-15 colon = test system: HCT-15 colon
HL-60(TB) leukemia = test system: HL-60(TB) leukemia
IGROV1 ovarian = test system: IGROV1 ovarian
HOP-62 NSCLC = test system: HOP-62 NSCLC
786-0 renal = test system: 786-0 renal

Structure (SMILES) | GI50 (MCF7 breast) | TGI (MCF7 breast) | GI50 (T-47D breast) | TGI (T-47D breast) | GI50 (EKVX NSCLC) | TGI (EKVX NSCLC) | GI50 (CAKI-1 renal) | TGI (CAKI-1 renal) | GI50 (SK-MEL-2 melanoma) | TGI (SK-MEL-2 melanoma) | GI50 (HCT-15 colon) | TGI (HCT-15 colon) | GI50 (HL-60(TB) leukemia) | TGI (HL-60(TB) leukemia) | GI50 (IGROV1 ovarian) | TGI (IGROV1 ovarian) | GI50 (HOP-62 NSCLC) | TGI (HOP-62 NSCLC) | GI50 (786-0 renal) | TGI (786-0 renal)
COC(=O)[C@H](Cc1ccccc1)NC(=O)c1csc([C@@H](C[C@H](C(C)C)N(C)C(=O)[C@@H](NC(=O)[C@H]2CCCN2C)C2CC2)OC(C)=O)n1 | 0.124 µM | > 33.3 µM | > 7.36 µM | > 33.3 µM | 1.97 µM | > 33.3 µM | 0.793 µM | > 33.3 µM | 0.728 µM | > 33.3 µM | 0.855 µM | > 33.3 µM | 0.204 µM | 1.9 µM | 0.327 µM | > 33.3 µM | 0.831 µM | > 33.3 µM | 0.746 µM | > 33.3 µM
COc1ccc2cc(-c3c(-c4ccncc4)nc(-c4ccc(S(C)=O)cc4C)n3C)ccc2c1 (stereo unspecified) | 14.1 µM | > 25 µM | 8.78 µM | > 25 µM | 8.34 µM | > 25 µM | 6.98 µM | > 25 µM | > 25 µM | > 25 µM | 16.7 µM | > 25 µM | 9.61 µM | > 25 µM | 11.1 µM | > 25 µM | 24.7 µM | > 25 µM | 24.3 µM | > 25 µM
COc1cc([C@H]2c3[nH]c4ccccc4c3C[C@H]3COC(=O)N32)cc(OC)c1O |  | 37.1 µM |  | > 100 µM |  | 22.7 µM |  | 46.8 µM |  |  |  | 38.5 µM |  | 14.5 µM |  | > 86.3 µM |  | 34.2 µM |  | 10.7 µM
CN(C)CCCN1c2ccccc2Sc2ccc(Cl)cc21 | 3.15 µM and 3.46 µM | 12.6 µM and 13.7 µM | 5.92 µM and 8.6 µM | 20 µM and 23.4 µM | 12.7 µM and 11.8 µM | 28.1 µM and 28 µM | 6.78 µM and 6.91 µM | 20.7 µM and 20.8 µM | 3.81 µM and 5.52 µM | 13.4 µM and 19.5 µM | 3.69 µM and 4.7 µM | 14.3 µM and 16.6 µM | 4.98 µM and 11.6 µM | 20.7 µM and 28.6 µM | 11.7 µM and 4.63 µM | 26.7 µM and 18.4 µM | 14.6 µM and 11.7 µM | 28.8 µM and 24.9 µM | 3.81 µM and 12 µM | 14.2 µM and 26.6 µM
COc1ccc2c(c1)nc1n2C(c2ccc(F)cc2)SC1 (stereo unspecified) | 18.5 µM | > 100 µM | 14.4 µM | 51 µM | 21.8 µM | 61.9 µM | 26.2 µM | 74.5 µM | 20.4 µM | 65 µM | 19.7 µM | 42.8 µM | 28.4 µM | > 100 µM | 26.5 µM | 99.4 µM | 79.7 µM | > 100 µM | 60.8 µM | > 100 µM
CC[C@H](C)[C@H](NC(=O)[C@H]1CCCCN1C)C(=O)N(C)[C@H](C[C@@H](OC(C)=O)c1nc(C(=O)N[C@@H](Cc2ccccc2)C[C@H](C)C(=O)OC)cs1)C(C)C |  | > 25 µM | 11.8 µM | > 25 µM | 0.000751 µM and 0.0025 µM | > 25 µM | 0.000792 µM |  | 0.000463 µM and < 0.0025 µM | < 0.0025 µM | 0.000332 µM and 0.0025 µM |  | 0.000249 µM and < 0.0025 µM | 0.000743 µM and < 0.0025 µM | 0.002 µM and 0.0025 µM | > 25 µM | 0.00052 µM and 0.0025 µM | > 25 µM | 0.000366 µM and 0.0025 µM | 14.8 µM
